Assays:
[1] = system: PARP, Mcl-1, p-Rb in primary leukemia samples; test: Western blot, primary leukemia cells in vitro; type: cell-based, human; settings: 6-h exposure, ≥20 nM; more prominent at 200 nM and 24 h
Experimental: Primary leukemia cells for in vitro studies were isolated from BM or PB obtained from AML or ALL patients enrolled on a separate University of Maryland, Baltimore, IRB-approved protocol for tissue collection and not treated on this clinical study. The cells were isolated by gradient centrifugation using LSM (Mediatech) according to the manufacturer’s protocol. Cells were used either fresh or after viable freezing (FBS/10 % DMSO). Primary leukemia cells were cultured in RPMI 1640 (Invitrogen, Grand Island, NY, USA) supplemented with 15 % heat-inactivated FBS (HyClone Laboratories Inc., Red Bank, NJ, USA) and 200 mM L-Glutamine (Invitrogen). […]
For Western blot analysis, leukemia cell pellets (primary leukemia cells, HL-60, MOLT-4, K562) were washed with PBS and lysed with RIPA buffer (Sigma-Aldrich, St. Louis, MO, USA) supplemented with Complete Mini™ protease inhibitor and PHOStop™ phosphatase inhibitors (Roche). […] Blots were washed three times, and the signal was detected with Amersham™ ECL™ detection systems (GE Healthcare, Pittsburgh, PA, USA). […] The Western blot signals were measured by densitometry using ImageJ 1.45I software (NIH, Bethesda, USA).

[2] = system: primary AML cells (AML 08); test: Annexin V/PI apoptosis assay, primary AML cells; type: cell-based, human; settings: 2, 20, and 200 nM
Experimental: (§1) Primary leukemia cells for in vitro studies were isolated from BM or PB obtained from AML or ALL patients enrolled on a separate University of Maryland, Baltimore, IRB-approved protocol for tissue collection and not treated on this clinical study. The cells were isolated by gradient centrifugation using LSM (Mediatech) according to the manufacturer’s protocol. Cells were used either fresh or after viable freezing (FBS/10 % DMSO). Primary leukemia cells were cultured in RPMI 1640 (Invitrogen, Grand Island, NY, USA) supplemented with 15 % heat-inactivated FBS (HyClone Laboratories Inc., Red Bank, NJ, USA) and 200 mM L-Glutamine (Invitrogen). Leukemia cell lines HL-60 (AML), MOLT-4 (T cell ALL), and K562 (chronic myelogenous leukemia [CML] in erythroid blast transformation) were purchased from American Type Culture Collection (ATCC, Manassas, VA, USA) and cultured in RPMI 1640 (Invitrogen) supplemented with 10 % heat-inactivated FBS (HyClone Laboratories Inc.) and 200 mM L-Glutamine (Invitrogen).

[3] = system: Mcl-1, phospho-Rb (Ser807/811), PARP cleavage; test: pharmacodynamic Western blot on patients' PBMC; type: in vivo, human
Experimental: For Western blot analysis, PB mononuclear cells (PBMC) were isolated by gradient centrifugation using lymphocyte separation medium (LSM) (Mediatech Inc., Manassas, VA, USA), and protein extracts were prepared and analyzed for the expression of Mcl-1, phospho-Rb (Ser807/811), and PARP cleavage as described below.
For Western blot analysis, leukemia cell pellets (primary leukemia cells, HL-60, MOLT-4, K562) were washed with PBS and lysed with RIPA buffer (Sigma-Aldrich, St. Louis, MO, USA) supplemented with Complete Mini™ protease inhibitor and PHOStop™ phosphatase inhibitors (Roche). Equal amounts of proteins up to 25 μg were separated on 4–12 % NuPAGE precast gels in 1X MOPS or 1X MES buffer (Invitrogen) and electro-blotted to PVDF membranes (Millipore, Billerica, MA, USA). The membranes were blocked with 5 % dry milk in 1X TBS/0.1 % Tween 20 for at least 1 h at room temperature. Blots were incubated with primary antibody (Ab) overnight at 4 °C, washed 3 times in TBS/0.1 % Tween 20, and then incubated with secondary Ab for 1 h at room temperature. Blots were washed three times, and the signal was detected with Amersham™ ECL™ detection systems (GE Healthcare, Pittsburgh, PA, USA). The following primary Abs were used: mouse anti-PARP (BD Pharmingen), rabbit anti-phospho-Rb (Ser807/811) and rabbit anti-Mcl-1 (both from Santa Cruz, Santa Cruz, CA, USA), rabbit anti-caspase 9 p35 and anti-caspase 3 (both from Cell Signaling, Danvers, MA, USA), and mouse anti-β-actin (Sigma-Aldrich). […] Secondary horseradish peroxidase-conjugated anti-mouse or anti-rabbit Abs were from Cell Signaling (Beverly, MA, USA). The Western blot signals were measured by densitometry using ImageJ 1.45I software (NIH, Bethesda, USA).

[4] = system: HL-60, MOLT-4, K562; settings: 24 or 72 vs. 2 h
Experimental: as §1

[5] = plasma pharmacokinetics (HPLC-MS/MS, population PK model); settings: human, intravenous
Experimental: Blood samples for PK evaluations (3 mL each) were collected into prechilled K2 EDTA tubes at 0, 0.25–0.5, 1–2, and 4 h after the end of the 2-h infusion on day 1 of cycles 1, 2, and 3. Samples were kept on ice and centrifuged within 1 h of collection at 2,700g/4 °C for 10 min; separated plasma was immediately frozen on dry ice and then stored at −20 °C or below.
A 2-compartment PPK model was developed with data from two phase I studies in solid tumors [31, 32]. The model fits were conducted using NONMEM V, level 1.1 (GloboMax LLC), and a first-order conditional estimation method was employed for all model runs. The model included between-subject variability on clearance and volume of distribution, and mixed error terms.

For CCc1cnn2c(NCc3ccc[n+]([O-])c3)cc(N3CCCC[C@H]3CCO)nc12 [Dinaciclib], the “Mcl-1 expression and PARP cleavage” value [1] was “down-regulation of Mcl-1 and induction of PARP cleavage were observed in all 5 primary leukemia samples”, the “apoptosis (AnnexinV/PI flow cytometry)” value [2] was “induced apoptosis in primary AML cells (AML 08) in a time- and concentration-dependent manner” and the “down-regulation of Mcl-1” value ([3]; PBMC 4 h after end of infusion, 4 specimens) was 34–76%. The PARP cleavage ([3]; PBMC 4 h post-treatment) was “Induction of PARP cleavage was also observed at 4 h”, the Mcl-1 expression ([3]; PBMC 4 h post-treatment, 1 AML and 3 ALL patients) was “decrease in Mcl-1 was seen in all specimens” and the Mcl-1 expression ([3]; PBMC 24 h post-treatment) was “returned to baseline by 24 h”. For the same compound, the “p-Rb (Ser807/811)” value ([3]; PBMC, 2 patients had almost undetectable baseline p-Rb) was “Decline in p-Rb was observed in 1 patient”, the “growth inhibitory and apoptosis-inducing effect of prolonged exposure” value [4] was “more potent growth inhibitory and apoptosis-inducing effect” and the Cmax [5] was greater than 4 µM. It also gave a concentration at 2 h ([5]; 40 mg/m^2) of 1010 ng/mL, a concentration at 2.25 h ([5]; 40 mg/m^2) of 1100 ng/mL and a concentration at 4 h ([5]; 40 mg/m^2) of 118 ng/mL. For the same compound, the concentration at 6 h ([5]; 40 mg/m^2) was 42.4 ng/mL, the AUC ([5]; 50 mg/m^2) was 3560 ng·h/mL and the concentration at 2.25 h ([5]; 50 mg/m^2) was 707 ng/mL. For the same compound, the concentration at 2.5 h ([5]; 50 mg/m^2) was 354 ng/mL, the concentration at 3 h ([5]; 50 mg/m^2) was 195 ng/mL and the concentration at 4 h ([5]; 50 mg/m^2) was 139 ng/mL. The concentration at 6 h ([5]; 50 mg/m^2) was 36.7 ng/mL, the AUC ([5]; 70 mg/m^2) was 4980 ng·h/mL and the concentration at 2 h ([5]; 70 mg/m^2) was 1700 ng/mL. The concentration at 2.25 h ([5]; 70 mg/m^2) was 724 ng/mL, the concentration at 2.5 h ([5]; 70 mg/m^2) was 457 ng/mL and the concentration at 3 h ([5]; 70 mg/m^2) was 307 ng/mL. For the same compound, the concentration at 4 h ([5]; 70 mg/m^2) was 125 ng/mL and the concentration at 6 h ([5]; 70 mg/m^2) was 52.2 ng/mL.
